Values quoted from earlier work in US12076400B2, “Methods of using a bispecific antigen-binding construct targeting HER2 in combination with CDK4/6 inhibitors for the treatment of breast cancer” (c/o Zymeworks BC Inc., priority 2019, dated 2024).

System: estrogen receptor (ER)-positive breast cancer cell lines
Conditions: by blocking progression from G1 into S phase

Structure (SMILES): CC(=O)c1c(C)c2cnc(Nc3ccc(N4CCNCC4)cn3)nc2n(C2CCCC2)c1=O [palbociclib, Palbociclib]
- Cellular proliferation in vitro: reduced cellular proliferation
